Our source for the viscosity and mass density values is the NIST ThermoML archive (doi:10.1016/j.jct.2016.04.021).

Numbers after ± are expanded uncertainties.

The conditions of the first data set: 293.15 K; 101.33 kPa; Liquid; Concentric cylinders viscometry.
As for `CCCCC(CC)CCC(=O)[O-].CCCCCCCC[N+](C)(CCCCCCCC)CCCCCCCC` [methyltrioctylammonium 4-ethyloctanoate], the viscosity is listed as 5743.4 ± 800 mPa·s.

Consider `CCCCCCCC/C=C\CCCCCCCC(=O)[O-].CCCCCCCC[N+](C)(CCCCCCCC)CCCCCCCC` [methyltrioctylammonium oleate], for which the viscosity was determined as 2934 ± 240 mPa·s.

In the case of `CCCCCCCC/C=C\CCCCCCCC(=O)[O-].CCCCCC[N+](CCCCCC)(CCCCCC)CCCCCC` [tetrahexylammonium oleate], the viscosity is reported as 2509.9 ± 200 mPa·s.

For the molecule `CCCCCCCC/C=C\CCCCCCCC(=O)[O-].CCCCCCCC[N+](CCCCCCCC)(CCCCCCCC)CCCCCCCC` [tetraoctylammonium oleate], the viscosity stood at 1689.3 ± 130 mPa·s.

The same data set, now with this note: 293.15 K; 101.33 kPa; Liquid; Vibrating tube method.
In the case of `CCCCC(CC)CCC(=O)[O-].CCCCCCCC[N+](C)(CCCCCCCC)CCCCCCCC` [methyltrioctylammonium 4-ethyloctanoate], the mass density amounted to 893.1 ± 18 kg/m3.

With `CCCCCCCC/C=C\CCCCCCCC(=O)[O-].CCCCCCCC[N+](C)(CCCCCCCC)CCCCCCCC` [methyltrioctylammonium oleate], the mass density is recorded as 890.5 ± 7.6 kg/m3.

On to `CCCCCCCC/C=C\CCCCCCCC(=O)[O-].CCCCCC[N+](CCCCCC)(CCCCCC)CCCCCC` [tetrahexylammonium oleate], for which the mass density is listed as 889.9 ± 5.5 kg/m3.

For `CCCCCCCC/C=C\CCCCCCCC(=O)[O-].CCCCCCCC[N+](CCCCCCCC)(CCCCCCCC)CCCCCCCC` [tetraoctylammonium oleate], the mass density turned out to be 878.4 ± 7.4 kg/m3.

The data set is the same for the next values; noted with them: 298.15 K; 101.33 kPa; Liquid; Concentric cylinders viscometry.
With `CCCCC(CC)CCC(=O)[O-].CCCCCCCC[N+](C)(CCCCCCCC)CCCCCCCC` [methyltrioctylammonium 4-ethyloctanoate], the viscosity is given as 3733.4 ± 510 mPa·s.

For the molecule `CCCCCCCC/C=C\CCCCCCCC(=O)[O-].CCCCCCCC[N+](C)(CCCCCCCC)CCCCCCCC` [methyltrioctylammonium oleate], the viscosity is on record as 1971.4 ± 150 mPa·s.

`CCCCCCCC/C=C\CCCCCCCC(=O)[O-].CCCCCC[N+](CCCCCC)(CCCCCC)CCCCCC` [tetrahexylammonium oleate]: the viscosity is recorded as 1623.7 ± 120 mPa·s.

For the molecule `CCCCCCCC/C=C\CCCCCCCC(=O)[O-].CCCCCCCC[N+](CCCCCCCC)(CCCCCCCC)CCCCCCCC` [tetraoctylammonium oleate], the viscosity was determined as 1153.4 ± 86 mPa·s.

The data set is the same for the next values; noted with them: 298.15 K; 101.33 kPa; Liquid; Vibrating tube method.
Turning to `CCCCC(CC)CCC(=O)[O-].CCCCCCCC[N+](C)(CCCCCCCC)CCCCCCCC` [methyltrioctylammonium 4-ethyloctanoate], the mass density is on record as 890.1 ± 18 kg/m3.

As for `CCCCCCCC/C=C\CCCCCCCC(=O)[O-].CCCCCCCC[N+](C)(CCCCCCCC)CCCCCCCC` [methyltrioctylammonium oleate], the mass density came to 887.5 ± 7.5 kg/m3.

Consider `CCCCCCCC/C=C\CCCCCCCC(=O)[O-].CCCCCC[N+](CCCCCC)(CCCCCC)CCCCCC` [tetrahexylammonium oleate], for which the mass density came out at 886.9 ± 5.5 kg/m3.

In the case of `CCCCCCCC/C=C\CCCCCCCC(=O)[O-].CCCCCCCC[N+](CCCCCCCC)(CCCCCCCC)CCCCCCCC` [tetraoctylammonium oleate], the mass density is 875.3 ± 7.4 kg/m3.

The same data set, now with this note: 303.15 K; 101.33 kPa; Liquid; Concentric cylinders viscometry.
Consider `CCCCC(CC)CCC(=O)[O-].CCCCCCCC[N+](C)(CCCCCCCC)CCCCCCCC` [methyltrioctylammonium 4-ethyloctanoate], for which the viscosity is reported as 2468.1 ± 330 mPa·s.

For `CCCCCCCC/C=C\CCCCCCCC(=O)[O-].CCCCCCCC[N+](C)(CCCCCCCC)CCCCCCCC` [methyltrioctylammonium oleate], the viscosity turned out to be 1354.6 ± 100 mPa·s.

Consider `CCCCCCCC/C=C\CCCCCCCC(=O)[O-].CCCCCC[N+](CCCCCC)(CCCCCC)CCCCCC` [tetrahexylammonium oleate], for which the viscosity is given as 1086.6 ± 79 mPa·s.

`CCCCCCCC/C=C\CCCCCCCC(=O)[O-].CCCCCCCC[N+](CCCCCCCC)(CCCCCCCC)CCCCCCCC` [tetraoctylammonium oleate]: the viscosity was found to be 804.8 ± 58 mPa·s.

The data set is the same for the next values; noted with them: 303.15 K; 101.33 kPa; Liquid; Vibrating tube method.
With `CCCCC(CC)CCC(=O)[O-].CCCCCCCC[N+](C)(CCCCCCCC)CCCCCCCC` [methyltrioctylammonium 4-ethyloctanoate], the mass density is 887.1 ± 18 kg/m3.

Take `CCCCCCCC/C=C\CCCCCCCC(=O)[O-].CCCCCCCC[N+](C)(CCCCCCCC)CCCCCCCC` [methyltrioctylammonium oleate]: the mass density is recorded as 884.5 ± 7.5 kg/m3.

Turning to `CCCCCCCC/C=C\CCCCCCCC(=O)[O-].CCCCCC[N+](CCCCCC)(CCCCCC)CCCCCC` [tetrahexylammonium oleate], the mass density worked out at 883.9 ± 5.5 kg/m3.

For the molecule `CCCCCCCC/C=C\CCCCCCCC(=O)[O-].CCCCCCCC[N+](CCCCCCCC)(CCCCCCCC)CCCCCCCC` [tetraoctylammonium oleate], the mass density worked out at 872.3 ± 7.4 kg/m3.

The same data set, now with this note: 308.15 K; 101.33 kPa; Liquid; Concentric cylinders viscometry.
Regarding `CCCCC(CC)CCC(=O)[O-].CCCCCCCC[N+](C)(CCCCCCCC)CCCCCCCC` [methyltrioctylammonium 4-ethyloctanoate], the viscosity is 1672.3 ± 220 mPa·s.

Regarding `CCCCCCCC/C=C\CCCCCCCC(=O)[O-].CCCCCCCC[N+](C)(CCCCCCCC)CCCCCCCC` [methyltrioctylammonium oleate], the viscosity was determined as 957.7 ± 70 mPa·s.

On to `CCCCCCCC/C=C\CCCCCCCC(=O)[O-].CCCCCC[N+](CCCCCC)(CCCCCC)CCCCCC` [tetrahexylammonium oleate], for which the viscosity was found to be 749 ± 53 mPa·s.

For `CCCCCCCC/C=C\CCCCCCCC(=O)[O-].CCCCCCCC[N+](CCCCCCCC)(CCCCCCCC)CCCCCCCC` [tetraoctylammonium oleate], the viscosity is recorded as 575.4 ± 40 mPa·s.

Still in this data set, the particulars now being: 308.15 K; 101.33 kPa; Liquid; Vibrating tube method.
Turning to `CCCCC(CC)CCC(=O)[O-].CCCCCCCC[N+](C)(CCCCCCCC)CCCCCCCC` [methyltrioctylammonium 4-ethyloctanoate], the mass density was determined as 884 ± 18 kg/m3.

In the case of `CCCCCCCC/C=C\CCCCCCCC(=O)[O-].CCCCCCCC[N+](C)(CCCCCCCC)CCCCCCCC` [methyltrioctylammonium oleate], the mass density was 881.5 ± 7.5 kg/m3.

With `CCCCCCCC/C=C\CCCCCCCC(=O)[O-].CCCCCC[N+](CCCCCC)(CCCCCC)CCCCCC` [tetrahexylammonium oleate], the mass density amounted to 880.9 ± 5.5 kg/m3.

As a reminder, the viscosity is the resistance of a fluid to flow. By mass density is commonly meant mass per unit of volume.
